These results are taken from patent US20220241354A1, “COMPOSITION” (MORINAGA MILK INDUSTRY CO., LTD., priority 2019, published 2022).

Assay [1] relates to Bifidobacterium breve M-16V. In words: Growth promoting effect on Bifidobacterium breve M-16V (turbidity at 600 nm after anaerobic culture). The note with it: 2′-FL 1.000 mass %, lactoferrin 0.000 mg/mL; glucose-free MRS, 37° C., 24 hours, n = 4. The format is cell-based. As for the experimental part: DifcoMRS (BD) was dissolved in purified water as described in a package insert and sterilized at 115° C. for 15 minutes. L-Cysteine hydrochloride (Wako) was dissolved in purified water, filtered and sterilized, and was aseptically added to MRS medium cooled to room temperature after sterilization to have a final concentration of 0.05% by mass.
A reagent was dissolved in purified water with the composition shown in Table 1 and sterilized at 115° C. for 15 minutes. L-Cysteine hydrochloride (Wako) was dissolved in purified water, filtered and sterilized, and was aseptically added to MRS medium cooled to room temperature after sterilization to have a final concentration of 0.05% by mass.
Human milk oligosaccharide (2′-fucosyllactose (2′-FL) (Carbosynth)) and lactoferrin (produced by Morinaga Milk Industry Co., Ltd., iron content 15.8 mg/100 g) were dissolved in purified water, respectively. They were filtered and sterilized after dissolution.
150 μL of a pre-culture solution of Bifidobacterium breve M-16V was added to 3 mL of MRS medium prepared in (1) (i), and was anaerobically cultured at 37° C. for 16 hours. […]
(§1) Then, the cells were anaerobically cultured at 37° C. for 24 hours. After culturing, turbidity was measured at a wavelength of 600 nm using a microplate reader (Corona Electric) to evaluate the growth of bifidobacteria.

Assay [2] has as its system Bifidobacterium infantis M-63. Put plainly: Growth promoting effect on Bifidobacterium infantis M-63 (turbidity at 600 nm). The format is cell-based. The note with it: 2′-FL 1.000 mass %, lactoferrin 0.000 mg/mL; 37° C., 24 hours, n = 12. As for the experimental part:
150 μL of a pre-culture solution of Bifidobacterium breve M-16V was added to 3 mL of MRS medium prepared in (1) (i), and was anaerobically cultured at 37° C. for 16 hours. After culturing, the cells were separated from the culture solution by centrifuging at 1500×g for 5 minutes. The culture solution was removed, and the cells were resuspended in 3 mL of glucose-free MRS medium prepared in (1) (ii).
The pre-culture solution prepared in (2) was added to the glucose-free MRS medium prepared in (1) (ii) to have a final concentration of 1 v/v %. Further, the 2′-fucosyllactose (2′-FL) solution and the lactoferrin solution prepared in (1) (iii) were respectively added to have the final concentrations shown in Table 2, and were dispensed into a 96-well plate at 200 μL/well.
as §1
The same operation as in Example 1 was carried out except that the bifidobacteria were replaced with Bifidobacterium infantis M-63, and the growth was evaluated.

Turning to 2′-fucosyllactose [2′-FL], the OD600 in assay [1] is reported as 0.076; in assay [2], 0.440.
